Test results taken from patent US20110294778A1, “HEPATITIS C INHIBITOR COMPOUNDS” (priority 2009, published 2011).

Legend:
[1] = tested on: HCV genotype 1a (strain H77) subgenomic replicon with NS3 resistance mutation R155K in Huh-7 cells; test: HCV replicon RNA replication assay (NS3 protease variants), genotype 1a R155K; format: cell-based; details: Hepatitis C virus, Huh-7, 72 h, read-out: R155K 1a EC50 (nM)
[2] = tested on: HCV genotype 1b (Con-1) subgenomic replicon with NS3 resistance mutation D168V in Huh-7 cells; test: HCV replicon RNA replication assay (NS3 protease variants), genotype 1b D168V; format: cell-based; details: Hepatitis C virus, Huh-7, 72 h, read-out: D168V 1b EC50 (nM)

| SMILES | EC50 [1] [nM] | EC50 [2] [nM] |
| --- | --- | --- |
| COc1c(Cl)ccc2c(O[C@@H]3C[C@H]4C(=O)N[C@]5(C(=O)NS(=O)(=O)C6(C)CC6)C[C@H]5/C=C\CCCCC[C@H](NC(=O)c5ccn(C)n5)C(=O)N4C3)cc(OC(C)C)nc12 [Compound 1010, (2R,6S,12Z,13aS,14aR,16aS)-2-{[7-chloro-8-methoxy-2-(propan-2-yloxy)quinolin-4-yl]oxy}-N-[(1-methylcyclopropyl)sulfonyl]-6-{[(1-methyl-1H-pyrazol-3-yl)carbonyl]amino}-5,16-dioxo-1,2,3,6,7,8,9,10,11,13a,14,15,16,16a-tetradecahydrocyclopropa[e]pyrrolo[1,2-a][1,4]diazacyclopentadecine-14a(5H)-carboxamide] | 7 | 0.33 |
| COc1c(Cl)ccc2c(O[C@@H]3C[C@H]4C(=O)N[C@]5(C(=O)NS(=O)(=O)C6(C)CC6)C[C@H]5/C=C\CCCCC[C@H](NC(=O)c5cnn(C)n5)C(=O)N4C3)cc(OC(C)C)nc12 [Compound 1011, (2R,6S,12Z,13aS,14aR,16aS)-2-{[7-chloro-8-methoxy-2-(propan-2-yloxy)quinolin-4-yl]oxy}-N-[(1-methylcyclopropyl)sulfonyl]-6-{[(2-methyl-2H-1,2,3-triazol-4-yl)carbonyl]amino}-5,16-dioxo-1,2,3,6,7,8,9,10,11,13a,14,15,16,16a-tetradecahydrocyclopropa[e]pyrrolo[1,2-a][1,4]diazacyclopentadecine-14a(5H)-carboxamide] | 8.4 | 0.63 |
| COc1ccc2c(O[C@@H]3C[C@H]4C(=O)N[C@]5(C(=O)NS(=O)(=O)C6(C)CC6)C[C@H]5/C=C\CCCCC[C@H](NC(=O)c5ccc(C)s5)C(=O)N4C3)cc(OC3CC3)nc2c1C [Compound 1012, (2R,6S,12Z,13aS,14aR,16aS)-2-{[2-(cyclopropyloxy)-7-methoxy-8-methylquinolin-4-yl]oxy}-N-[(1-methylcyclopropyl)sulfonyl]-6-{[(5-methylthiophen-2-yl)carbonyl]amino}-5,16-dioxo-1,2,3,6,7,8,9,10,11,13a,14,15,16,16a-tetradecahydrocyclopropa[e]pyrrolo[1,2-a][1,4]diazacyclopentadecine-14a(5H)-carboxamide] | 5.6 | 0.26 |
| COc1ccc2c(O[C@@H]3C[C@H]4C(=O)N[C@]5(C(=O)NS(=O)(=O)C6CC6)C[C@H]5/C=C\CCCCC[C@H](NC(=O)c5cnn(C)n5)C(=O)N4C3)cc(OC(C)C)nc2c1C [Compound 1013, (2R,6S,12Z,13aS,14aR,16aS)-N-(cyclopropylsulfonyl)-2-{[7-methoxy-8-methyl-2-(propan-2-yloxy)quinolin-4-yl]oxy}-6-{[(2-methyl-2H-1,2,3-triazol-4-yl)carbonyl]amino}-5,16-dioxo-1,2,3,6,7,8,9,10,11,13a,14,15,16,16a-tetradecahydrocyclopropa[e]pyrrolo[1,2-a][1,4]diazacyclopentadecine-14a(5H)-carboxamide] | 7.8 | 0.52 |
| CCOc1cc(O[C@@H]2C[C@H]3C(=O)N[C@]4(C(=O)NS(=O)(=O)C5CC5)C[C@H]4/C=C\CCCCC[C@H](NC(=O)c4ccc(COC)s4)C(=O)N3C2)c2ccc(OC)c(C)c2n1 [Compound 1014, (2R,6S,12Z,13aS,14aR,16aS)-N-(cyclopropylsulfonyl)-2-[(2-ethoxy-7-methoxy-8-methylquinolin-4-yl)oxy]-6-({[5-(methoxymethyl)thiophen-2-yl]carbonyl}amino)-5,16-dioxo-1,2,3,6,7,8,9,10,11,13a,14,15,16,16a-tetradecahydrocyclopropa[e]pyrrolo[1,2-a][1,4]diazacyclopentadecine-14a(5H)-carboxamide] | 8.3 | 0.31 |
| COc1ccc2c(O[C@@H]3C[C@H]4C(=O)N[C@]5(C(=O)NS(=O)(=O)C6CC6)C[C@H]5/C=C\CCCCC[C@H](NC(=O)c5ccn(C)n5)C(=O)N4C3)cc(OCC(F)(F)F)nc2c1C [Compound 1015, (2R,6S,12Z,13aS,14aR,16aS)-N-(cyclopropylsulfonyl)-2-{[7-methoxy-8-methyl-2-(2,2,2-trifluoroethoxy)quinolin-4-yl]oxy}-6-{[(1-methyl-1H-pyrazol-3-yl)carbonyl]amino}-5,16-dioxo-1,2,3,6,7,8,9,10,11,13a,14,15,16,16a-tetradecahydrocyclopropa[e]pyrrolo[1,2-a][1,4]diazacyclopentadecine-14a(5H)-carboxamide] | 8.2 | 0.57 |
| CCOc1cc(O[C@@H]2C[C@H]3C(=O)N[C@]4(C(=O)NS(=O)(=O)C5CC5)C[C@H]4/C=C\CCCCC[C@H](NC(=O)c4ccn(C)n4)C(=O)N3C2)c2ccc(OC)c(Br)c2n1 [Compound 1017, (2R,6S,12Z,13aS,14aR,16aS)-2-[(8-bromo-2-ethoxy-7-methoxyquinolin-4-yl)oxy]-N-(cyclopropylsulfonyl)-6-{[(1-methyl-1H-pyrazol-3-yl)carbonyl]amino}-5,16-dioxo-1,2,3,6,7,8,9,10,11,13a,14,15,16,16a-tetradecahydrocyclopropa[e]pyrrolo[1,2-a][1,4]diazacyclopentadecine-14a(5H)-carboxamide] | 9.5 | 1.1 |
| COc1ccc2c(O[C@@H]3C[C@H]4C(=O)N[C@]5(C(=O)NS(=O)(=O)C6(C)CC6)C[C@H]5/C=C\CCCCC[C@H](NC(=O)c5ccn(C(F)F)n5)C(=O)N4C3)cc(OC(C)C)nc2c1C [Compound 1018, (2R,6S,12Z,13aS,14aR,16aS)-6-({[1-(difluoromethyl)-1H-pyrazol-3-yl]carbonyl}amino)-2-{[7-methoxy-8-methyl-2-(propan-2-yloxy)quinolin-4-yl]oxy}-N-[(1-methylcyclopropyl)sulfonyl]-5,16-dioxo-1,2,3,6,7,8,9,10,11,13a,14,15,16,16a-tetradecahydrocyclopropa[e]pyrrolo[1,2-a][1,4]diazacyclopentadecine-14a(5H)-carboxamide] | 2.4 | 0.14 |
| CCn1ccc(C(=O)N[C@H]2CCCCC/C=C\[C@@H]3C[C@@]3(C(=O)NS(=O)(=O)C3(C)CC3)NC(=O)[C@@H]3C[C@@H](Oc4cc(OC(C)C)nc5c(C)c(OC)ccc45)CN3C2=O)n1 [Compound 1019, (2R,6S,12Z,13aS,14aR,16aS)-6-{[(1-ethyl-1H-pyrazol-3-yl)carbonyl]amino}-2-{[7-methoxy-8-methyl-2-(propan-2-yloxy)quinolin-4-yl]oxy}-N-[(1-methylcyclopropyl)sulfonyl]-5,16-dioxo-1,2,3,6,7,8,9,10,11,13a,14,15,16,16a-tetradecahydrocyclopropa[e]pyrrolo[1,2-a][1,4]diazacyclopentadecine-14a(5H)-carboxamide] | 0.88 | 0.16 |
| COc1ccc2c(O[C@@H]3C[C@H]4C(=O)N[C@]5(C(=O)NS(=O)(=O)C6(C)CC6)C[C@H]5/C=C\CCCCC[C@H](NC(=O)c5ccn(CC(C)C)n5)C(=O)N4C3)cc(OC(C)C)nc2c1C [Compound 1020, (2R,6S,12Z,13aS,14aR,16aS)-2-{[7-methoxy-8-methyl-2-(propan-2-yloxy)quinolin-4-yl]oxy}-N-[(1-methylcyclopropyl)sulfonyl]-6-({[1-(2-methylpropyl)-1H-pyrazol-3-yl]carbonyl}amino)-5,16-dioxo-1,2,3,6,7,8,9,10,11,13a,14,15,16,16a-tetradecahydrocyclopropa[e]pyrrolo[1,2-a][1,4]diazacyclopentadecine-14a(5H)-carboxamide] | 3.1 | 0.23 |
| COc1ccc2c(O[C@@H]3C[C@H]4C(=O)N[C@]5(C(=O)NS(=O)(=O)C6(C)CC6)C[C@H]5/C=C\CCCCC[C@H](NC(=O)c5ccn(C(C)C)n5)C(=O)N4C3)cc(OC(C)C)nc2c1C [Compound 1021, (2R,6S,12Z,13aS,14aR,16aS)-2-{[7-methoxy-8-methyl-2-(propan-2-yloxy)quinolin-4-yl]oxy}-N-[(1-methylcyclopropyl)sulfonyl]-5,16-dioxo-6-({[1-(propan-2-yl)-1H-pyrazol-3-yl]carbonyl}amino)-1,2,3,6,7,8,9,10,11,13a,14,15,16,16a-tetradecahydrocyclopropa[e]pyrrolo[1,2-a][1,4]diazacyclopentadecine-14a(5H)-carboxamide] | 4.3 | 0.24 |
| COc1ccc2c(O[C@@H]3C[C@H]4C(=O)N[C@]5(C(=O)NS(=O)(=O)C6(C)CC6)C[C@H]5/C=C\CCCCC[C@H](NC(=O)c5ccn(C)n5)C(=O)N4C3)cc(OC3CCC3)nc2c1C [Compound 1022, (2R,6S,12Z,13aS,14aR,16aS)-2-{[2-(cyclobutyloxy)-7-methoxy-8-methylquinolin-4-yl]oxy}-N-[(1-methylcyclopropyl)sulfonyl]-6-{[(1-methyl-1H-pyrazol-3-yl)carbonyl]amino}-5,16-dioxo-1,2,3,6,7,8,9,10,11,13a,14,15,16,16a-tetradecahydrocyclopropa[e]pyrrolo[1,2-a][1,4]diazacyclopentadecine-14a(5H)-carboxamide] | 6.8 | 0.24 |
| COc1ccc2c(O[C@@H]3C[C@H]4C(=O)N[C@]5(C(=O)NS(=O)(=O)C6(C)CC6)C[C@H]5/C=C\CCCCC[C@H](NC(=O)c5ccn(CC(F)(F)F)n5)C(=O)N4C3)cc(OC3CCC3)nc2c1C [Compound 1023, (2R,6S,12Z,13aS,14aR,16aS)-2-{[2-(cyclobutyloxy)-7-methoxy-8-methylquinolin-4-yl]oxy}-N-[(1-methylcyclopropyl)sulfonyl]-5,16-dioxo-6-({[1-(2,2,2-trifluoroethyl)-1H-pyrazol-3-yl]carbonyl}amino)-1,2,3,6,7,8,9,10,11,13a,14,15,16,16a-tetradecahydrocyclopropa[e]pyrrolo[1,2-a][1,4]diazacyclopentadecine-14a(5H)-carboxamide] | 8.2 | 0.25 |
